Test results: ChEMBL document CHEMBL1201862, “PubChem BioAssay data set” (2004)
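Compound exposure: 48 hours, 5 concentrations, 96-well plates. GI50 = concentration required for 50% inhibition of growth.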 The source made the active and inactive calls. Cut-off read from the data, not from the text of the source: active = GI50 up to about 1.1 µM and inactive = higher.

Experiments:
Experiment in all cases: NCI-60 cell line screen, 48 h
SW-620 = test system: SW-620
M14 = test system: M14
NCI-H23 = test system: NCI-H23
NCI-H226 = test system: NCI-H226
HCT-116 = test system: HCT-116
Hs-578T = test system: Hs-578T
HT-29 = test system: HT-29
PC-3 = test system: PC-3
RXF 393 = test system: RXF 393
SF-268 = test system: SF-268
DU-145 = test system: DU-145
MCF7 = test system: MCF7
OVCAR-5 = test system: OVCAR-5
ACHN = test system: ACHN
MDA-N = test system: MDA-N
SF-539 = test system: SF-539
U-251 = test system: U-251
RPMI-8226 = test system: RPMI-8226
TK-10 = test system: TK-10
CCRF-CEM = test system: CCRF-CEM

SMILES | GI50 (SW-620) | GI50 (M14) | GI50 (NCI-H23) | GI50 (NCI-H226) | GI50 (HCT-116) | GI50 (Hs-578T) | GI50 (HT-29) | GI50 (PC-3) | GI50 (RXF 393) | GI50 (SF-268) | GI50 (DU-145) | GI50 (MCF7) | GI50 (OVCAR-5) | GI50 (ACHN) | GI50 (MDA-N) | GI50 (SF-539) | GI50 (U-251) | GI50 (RPMI-8226) | GI50 (TK-10) | GI50 (CCRF-CEM)
N=C(N)N/N=C/c1nc2n(c1[N+](=O)[O-])CCS2 | 28.4 µM (inactive) | 25.2 µM (inactive) | 14.5 µM (inactive) | 35.8 µM (inactive) | 21.9 µM (inactive) | 30.3 µM (inactive) | 30.2 µM (inactive) | 31.6 µM (inactive) | 20.8 µM (inactive) | 10.6 µM (inactive) | 27.3 µM (inactive) | 15 µM (inactive) | 43.8 µM (inactive) | > 100 µM (inactive) | 32.1 µM (inactive) | 29 µM (inactive) | 15.7 µM (inactive) | 52 µM (inactive) | 40.7 µM (inactive) | –
CCOP(=O)(OCC)C(NC(=O)OCC(Cl)(Cl)Cl)n1nnc(C(=O)OC)c1C(=O)OC (stereo not given) | > 100 µM (inactive) | > 100 µM (inactive) | > 100 µM (inactive) | > 100 µM (inactive) | > 100 µM (inactive) | > 100 µM (inactive) | > 100 µM (inactive) | 77.8 µM (inactive) | > 100 µM (inactive) | > 100 µM (inactive) | > 100 µM (inactive) | > 100 µM (inactive) | – | > 100 µM (inactive) | > 100 µM (inactive) | > 100 µM (inactive) | > 100 µM (inactive) | > 100 µM (inactive) | > 100 µM (inactive) | > 100 µM (inactive)
Nc1ccccc1C#CC(=O)c1cccc(C(F)(F)F)c1 | 2.21 µM (inactive) | 2.22 µM (inactive) | 1.97 µM (inactive) | 3.58 µM (inactive) | 2.66 µM (inactive) | 2.56 µM (inactive) | 4.16 µM (inactive) | 3.41 µM (inactive) | 2.25 µM (inactive) | 2.2 µM (inactive) | 3.24 µM (inactive) | 2.89 µM (inactive) | 6.59 µM (inactive) | – | 3.1 µM (inactive) | 3.18 µM (inactive) | 1.95 µM (inactive) | 2.3 µM (inactive) | 17.2 µM (inactive) | 0.867 µM (active)
N#C/C(=C\c1ccc(F)cc1)c1nc(-c2cc3ccccc3oc2=O)cs1 | 40.4 µM (inactive) | 13.8 µM (inactive) | – | 28.7 µM (inactive) | 35.2 µM (inactive) | 15.1 µM (inactive) | 40.1 µM (inactive) | 31.7 µM (inactive) | 18.6 µM (inactive) | 16.5 µM (inactive) | 38.6 µM (inactive) | 37.8 µM (inactive) | > 100 µM (inactive) | 22 µM (inactive) | 76.2 µM (inactive) | 18 µM (inactive) | 14.6 µM (inactive) | 87.9 µM (inactive) | 16.4 µM (inactive) | > 100 µM (inactive)
CCOC(=O)[C@@]1(C(C)=O)CC(C)=C(C)C[S@@+]1[O-] | > 100 µM (inactive) | > 100 µM (inactive) | > 100 µM (inactive) | > 100 µM (inactive) | > 100 µM (inactive) | > 100 µM (inactive) | – | > 100 µM (inactive) | > 100 µM (inactive) | > 100 µM (inactive) | > 100 µM (inactive) | > 100 µM (inactive) | > 100 µM (inactive) | > 100 µM (inactive) | > 100 µM (inactive) | – | > 100 µM (inactive) | > 100 µM (inactive) | > 100 µM (inactive) | –
CCSc1cc(C(=O)OC)c2n(c1=O)CCCC2 | > 100 µM (inactive) | > 100 µM (inactive) | > 100 µM (inactive) | > 100 µM (inactive) | > 100 µM (inactive) | > 100 µM (inactive) | > 100 µM (inactive) | > 100 µM (inactive) | > 100 µM (inactive) | > 100 µM (inactive) | > 100 µM (inactive) | > 100 µM (inactive) | > 100 µM (inactive) | > 100 µM (inactive) | > 100 µM (inactive) | > 100 µM (inactive) | > 100 µM (inactive) | – | > 100 µM (inactive) | > 100 µM (inactive)
CCN(CC)C(=S)SC(=S)N(CC)CC | 28.6 µM (inactive) | 44.5 µM (inactive) | 26.2 µM (inactive) | 33.7 µM (inactive) | 21 µM (inactive) | 50.7 µM (inactive) | – | 38.1 µM (inactive) | 36.6 µM (inactive) | 41.9 µM (inactive) | 55.8 µM (inactive) | 34.8 µM (inactive) | > 100 µM (inactive) | 35.4 µM (inactive) | 43.4 µM (inactive) | > 62.8 µM (inactive) | 36 µM (inactive) | 15.6 µM (inactive) | > 51.2 µM (inactive) | –
Nc1nc(Cl)c(/C=N\O)c(NCC2(CO)CCC2)n1 | > 100 µM (inactive) | – | 1.73 µM (inactive) | 23.2 µM (inactive) | 13.7 µM (inactive) | 28.2 µM (inactive) | 59.3 µM (inactive) | 43 µM (inactive) | 22.4 µM (inactive) | > 100 µM (inactive) | 40.4 µM (inactive) | 25.2 µM (inactive) | 70.8 µM (inactive) | 26.3 µM (inactive) | 44.4 µM (inactive) | 33.8 µM (inactive) | > 100 µM (inactive) | 8.11 µM (inactive) | 21.8 µM (inactive) | 28.5 µM (inactive)
O=C(/C=C/c1cccc(Oc2ccccc2)c1)NCc1ccc(C(=O)NCCc2ccccc2)cc1 | > 100 µM (inactive) | > 100 µM (inactive) | 43.7 µM (inactive) | > 100 µM (inactive) | > 100 µM (inactive) | > 100 µM (inactive) | 16.9 µM (inactive) | > 100 µM (inactive) | 20 µM (inactive) | 33.5 µM (inactive) | > 100 µM (inactive) | > 100 µM (inactive) | > 100 µM (inactive) | > 100 µM (inactive) | > 100 µM (inactive) | 14.8 µM (inactive) | 35 µM (inactive) | > 100 µM (inactive) | > 100 µM (inactive) | –
O=S(=O)(O)c1cc(O)c2c(O)c(/N=N/c3cccc4ccccc34)c(S(=O)(=O)O)cc2c1 | > 100 µM (inactive) | > 100 µM (inactive) | > 100 µM (inactive) | > 100 µM (inactive) | > 100 µM (inactive) | > 100 µM (inactive) | > 100 µM (inactive) | > 100 µM (inactive) | > 100 µM (inactive) | > 100 µM (inactive) | > 100 µM (inactive) | > 100 µM (inactive) | > 100 µM (inactive) | > 100 µM (inactive) | > 100 µM (inactive) | > 100 µM (inactive) | > 100 µM (inactive) | > 100 µM (inactive) | > 100 µM (inactive) | –
O=C(O)C(F)(F)C(F)(F)C(F)(F)C(F)(F)C(=O)O | > 100 µM (inactive) | > 100 µM (inactive) | > 100 µM (inactive) | > 100 µM (inactive) | > 100 µM (inactive) | > 100 µM (inactive) | > 100 µM (inactive) | > 100 µM (inactive) | > 100 µM (inactive) | > 100 µM (inactive) | > 100 µM (inactive) | > 100 µM (inactive) | > 100 µM (inactive) | > 100 µM (inactive) | > 100 µM (inactive) | – | > 100 µM (inactive) | > 100 µM (inactive) | > 100 µM (inactive) | > 100 µM (inactive)
N#CC(/N=N/c1ccc(Cl)cc1)c1nc2ccccc2o1 (stereo not given) | – | > 100 µM (inactive) | 25.6 µM (inactive) | > 100 µM (inactive) | 56.4 µM (inactive) | 42.7 µM (inactive) | > 100 µM (inactive) | 77.6 µM (inactive) | 37.6 µM (inactive) | 33.3 µM (inactive) | > 100 µM (inactive) | > 100 µM (inactive) | > 100 µM (inactive) | 32.9 µM (inactive) | > 100 µM (inactive) | 24.6 µM (inactive) | 29.6 µM (inactive) | 15.7 µM (inactive) | 56.6 µM (inactive) | 21.1 µM (inactive)
O=C(O)c1[nH]c(=O)[nH]c(=O)c1CN1CCCCC1 | > 100 µM (inactive) | > 100 µM (inactive) | > 100 µM (inactive) | > 100 µM (inactive) | > 100 µM (inactive) | > 100 µM (inactive) | > 100 µM (inactive) | > 100 µM (inactive) | > 100 µM (inactive) | > 100 µM (inactive) | > 100 µM (inactive) | > 100 µM (inactive) | > 100 µM (inactive) | > 100 µM (inactive) | > 100 µM (inactive) | – | > 100 µM (inactive) | > 100 µM (inactive) | > 100 µM (inactive) | 0.0553 µM (active)
Cc1cc(C)c2c(c1)C(=O)C1(C2)Cc2c(ccc(C)c2C)C1=O (stereo not given) | > 100 µM (inactive) | > 100 µM (inactive) | – | > 100 µM (inactive) | > 100 µM (inactive) | > 100 µM (inactive) | – | > 100 µM (inactive) | > 100 µM (inactive) | > 100 µM (inactive) | > 100 µM (inactive) | > 100 µM (inactive) | – | > 100 µM (inactive) | > 100 µM (inactive) | 85.5 µM (inactive) | > 100 µM (inactive) | > 100 µM (inactive) | > 100 µM (inactive) | > 100 µM (inactive)
CC1(C)OC2C(CO)OC(n3ccc(N)nc3=O)C2O1 (stereo not given) | > 100 µM (inactive) | > 100 µM (inactive) | > 100 µM (inactive) | > 100 µM (inactive) | > 100 µM (inactive) | > 100 µM (inactive) | – | > 100 µM (inactive) | > 100 µM (inactive) | > 100 µM (inactive) | > 100 µM (inactive) | > 100 µM (inactive) | > 100 µM (inactive) | > 100 µM (inactive) | > 100 µM (inactive) | > 100 µM (inactive) | > 100 µM (inactive) | > 100 µM (inactive) | > 100 µM (inactive) | > 100 µM (inactive)
